# ChEMBL document CHEMBL1201862, “PubChem BioAssay data set” (2004)
# Active and inactive are the calls of the source.
# Assays:
# [1] = system: H4; test: Luminescence Cell-Based Dose Response HTS to Identify Activators of 5'UTR Stem-Loop Driven Prion Protein mRNA Translation in H4 Neuroglioblastoma Cells. [Related pubchem assays: 1829 (Project Summary), 1814 (Primary HTS)]; format: functional; conditions: Homo sapiens
# [2] = Luminescence Cell-Based Dose Response HTS to Identify Activators of Luciferase Translation or Activity in H4 […] Cells. [Related pubchem assays: 1829 (Project Summary), 1814 (Primary HTS)]; format: functional
# [3] = system: HeLa; test: HeLa cell cytotoxicity, dose response, cytotoxicity control for MITF activator project, CellTiter-Glo luminescence, cherry-pick samples (AID 540259); format: functional, cell-based; conditions: Homo sapiens
# [4] = target: T1, Microphthalmia-associated transcription factor (Homo sapiens, UniProt O75030); test: TRPM1 promoter luciferase signal decrease, dose response, MITF inhibitor project, cell-based, SK-MEL-5, cherry-picked, set 3 (AID 493073); format: functional
# T1 sequence (O75030 whole entry): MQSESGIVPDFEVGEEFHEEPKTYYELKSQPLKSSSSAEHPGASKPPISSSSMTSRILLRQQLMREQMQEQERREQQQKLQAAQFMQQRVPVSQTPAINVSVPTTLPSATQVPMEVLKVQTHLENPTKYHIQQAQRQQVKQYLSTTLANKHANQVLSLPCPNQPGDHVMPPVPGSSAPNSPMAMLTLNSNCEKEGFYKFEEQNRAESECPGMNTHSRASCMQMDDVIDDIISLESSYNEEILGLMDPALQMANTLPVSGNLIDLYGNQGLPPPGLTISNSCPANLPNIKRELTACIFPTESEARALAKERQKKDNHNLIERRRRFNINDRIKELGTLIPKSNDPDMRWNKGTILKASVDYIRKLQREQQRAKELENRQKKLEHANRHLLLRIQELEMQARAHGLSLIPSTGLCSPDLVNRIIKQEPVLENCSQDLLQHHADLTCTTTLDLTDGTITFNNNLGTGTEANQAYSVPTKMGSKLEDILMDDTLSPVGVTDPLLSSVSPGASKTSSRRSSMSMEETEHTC
# [5] = system: A-375; test: A375 melanoma cell viability reduction, dose response, counter-screen for MITF modulator project, cherry-pick samples, set 2 (AID 540335); format: functional, cell-based; conditions: Homo sapiens
# [6] = system: INS1; test: beta cell apoptosis inhibitors, cytokine rescue, dose response, luminescence, retest (AID 449756); format: functional, cell-based; conditions: Rattus norvegicus;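 note: cell death triggered by IL-1 beta plus TNF-alpha plus IFN-gamma mixture; protective hits raise ATP signal compared with cytokine alone wells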
# [7] = Luminescence Cell-Based Dose Retest to Confirm Inhibitors of Cancer Stem Cells. [Related pubchem assays (depositor defined):AID2717, AID2721]; format: functional; conditions: Homo sapiens
# [8] = target: Lysine-specific demethylase 4A (Homo sapiens, UniProt O75164); test: JMJD2A histone demethylase inhibitors, dose response, selectivity assay for GASC-1 inhibitor project, biochemical, DELFIA europium, cherry-picked samples (AID 488840)
# Chain of Lysine-specific demethylase 4A (O75164 whole entry): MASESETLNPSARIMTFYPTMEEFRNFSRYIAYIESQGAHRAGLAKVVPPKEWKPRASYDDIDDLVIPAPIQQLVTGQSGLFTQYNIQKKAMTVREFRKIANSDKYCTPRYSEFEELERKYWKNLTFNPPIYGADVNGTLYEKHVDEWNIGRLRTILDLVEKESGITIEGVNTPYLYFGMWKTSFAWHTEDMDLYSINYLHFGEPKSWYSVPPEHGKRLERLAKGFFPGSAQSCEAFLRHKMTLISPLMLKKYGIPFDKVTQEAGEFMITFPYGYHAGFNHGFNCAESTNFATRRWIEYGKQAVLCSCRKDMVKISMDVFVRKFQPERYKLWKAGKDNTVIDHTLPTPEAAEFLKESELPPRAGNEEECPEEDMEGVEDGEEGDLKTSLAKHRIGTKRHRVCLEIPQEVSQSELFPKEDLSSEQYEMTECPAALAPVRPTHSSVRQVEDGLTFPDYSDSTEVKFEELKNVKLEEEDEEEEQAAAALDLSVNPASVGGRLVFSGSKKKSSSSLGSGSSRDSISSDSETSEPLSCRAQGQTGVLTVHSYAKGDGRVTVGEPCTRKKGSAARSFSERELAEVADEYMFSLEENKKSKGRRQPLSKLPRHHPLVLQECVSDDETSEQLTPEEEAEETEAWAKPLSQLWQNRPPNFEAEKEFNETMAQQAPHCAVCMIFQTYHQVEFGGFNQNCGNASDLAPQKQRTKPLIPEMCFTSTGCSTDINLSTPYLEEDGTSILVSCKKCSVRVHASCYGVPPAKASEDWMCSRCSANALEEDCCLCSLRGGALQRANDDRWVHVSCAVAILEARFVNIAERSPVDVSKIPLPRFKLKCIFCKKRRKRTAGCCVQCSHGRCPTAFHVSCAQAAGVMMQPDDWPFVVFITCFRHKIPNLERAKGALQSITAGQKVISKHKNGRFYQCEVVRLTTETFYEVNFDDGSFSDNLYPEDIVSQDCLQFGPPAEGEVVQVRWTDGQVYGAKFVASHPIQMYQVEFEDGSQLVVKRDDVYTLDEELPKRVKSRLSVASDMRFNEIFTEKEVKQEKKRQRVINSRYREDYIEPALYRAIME
# [9] = target: T2, Lysine-specific demethylase 4C (Homo sapiens, UniProt Q9H3R0); test: GASC-1 (JMJD2C) histone demethylase inhibitors, dose response, biochemical, DELFIA europium, cherry-picked samples (AID 488835); format: functional
# T2 sequence (Q9H3R0 whole entry): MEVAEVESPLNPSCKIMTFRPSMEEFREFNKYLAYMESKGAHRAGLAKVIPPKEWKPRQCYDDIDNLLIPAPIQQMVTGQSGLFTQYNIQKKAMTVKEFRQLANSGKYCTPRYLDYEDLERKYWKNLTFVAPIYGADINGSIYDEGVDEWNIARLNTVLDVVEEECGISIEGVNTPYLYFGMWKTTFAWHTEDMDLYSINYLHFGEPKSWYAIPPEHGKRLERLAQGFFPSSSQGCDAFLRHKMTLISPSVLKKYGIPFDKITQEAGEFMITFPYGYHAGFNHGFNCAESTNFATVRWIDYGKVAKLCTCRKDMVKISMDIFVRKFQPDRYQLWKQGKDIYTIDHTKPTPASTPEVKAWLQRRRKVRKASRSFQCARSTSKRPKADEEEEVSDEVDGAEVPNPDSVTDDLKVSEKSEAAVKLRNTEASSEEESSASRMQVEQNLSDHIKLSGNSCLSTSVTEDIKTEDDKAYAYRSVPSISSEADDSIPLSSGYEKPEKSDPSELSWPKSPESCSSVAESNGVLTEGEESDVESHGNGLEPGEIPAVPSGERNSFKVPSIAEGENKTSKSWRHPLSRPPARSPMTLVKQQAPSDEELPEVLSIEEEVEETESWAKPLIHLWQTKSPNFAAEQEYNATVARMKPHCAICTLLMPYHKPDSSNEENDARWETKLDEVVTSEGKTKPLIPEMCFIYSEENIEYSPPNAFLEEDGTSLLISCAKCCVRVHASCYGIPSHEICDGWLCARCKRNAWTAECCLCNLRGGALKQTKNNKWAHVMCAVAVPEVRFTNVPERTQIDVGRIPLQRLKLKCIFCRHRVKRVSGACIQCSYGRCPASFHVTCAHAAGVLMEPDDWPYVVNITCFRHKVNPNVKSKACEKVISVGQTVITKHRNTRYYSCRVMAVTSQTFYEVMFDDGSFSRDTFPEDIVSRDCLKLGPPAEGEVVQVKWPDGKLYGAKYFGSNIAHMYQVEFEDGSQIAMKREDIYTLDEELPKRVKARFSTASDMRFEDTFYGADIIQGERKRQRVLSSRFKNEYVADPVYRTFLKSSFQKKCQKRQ
# [10] = target: T3, RNA-binding protein pos-1 (Caenorhabditis elegans, UniProt G5EF15); test: inhibitors of POS-1/mex-3 RNA binding, dose response, biochemical, fluorescence polarization (AID 1964);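 note: purified POS-1 fused to maltose binding protein made in E. coli; potency of compounds blocking POS-1 binding to fluorescent RNA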
# T3 sequence (G5EF15 whole entry): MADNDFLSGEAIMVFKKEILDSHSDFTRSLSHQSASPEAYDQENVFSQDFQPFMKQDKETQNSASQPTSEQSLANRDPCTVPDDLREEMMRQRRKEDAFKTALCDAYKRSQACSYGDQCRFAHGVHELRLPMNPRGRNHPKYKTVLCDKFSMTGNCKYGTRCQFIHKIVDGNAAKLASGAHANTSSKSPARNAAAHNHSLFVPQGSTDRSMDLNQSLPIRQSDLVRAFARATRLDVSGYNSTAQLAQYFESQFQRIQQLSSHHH
# [11] = target: T4, Zinc finger protein mex-5 (Caenorhabditis elegans, UniProt Q9XUB2); test: MEX-5/TCR-2 RNA interaction inhibitors, dose response, biochemical, C. elegans, fluorescence polarization (AID 1960)
# T4 sequence (Q9XUB2 whole entry): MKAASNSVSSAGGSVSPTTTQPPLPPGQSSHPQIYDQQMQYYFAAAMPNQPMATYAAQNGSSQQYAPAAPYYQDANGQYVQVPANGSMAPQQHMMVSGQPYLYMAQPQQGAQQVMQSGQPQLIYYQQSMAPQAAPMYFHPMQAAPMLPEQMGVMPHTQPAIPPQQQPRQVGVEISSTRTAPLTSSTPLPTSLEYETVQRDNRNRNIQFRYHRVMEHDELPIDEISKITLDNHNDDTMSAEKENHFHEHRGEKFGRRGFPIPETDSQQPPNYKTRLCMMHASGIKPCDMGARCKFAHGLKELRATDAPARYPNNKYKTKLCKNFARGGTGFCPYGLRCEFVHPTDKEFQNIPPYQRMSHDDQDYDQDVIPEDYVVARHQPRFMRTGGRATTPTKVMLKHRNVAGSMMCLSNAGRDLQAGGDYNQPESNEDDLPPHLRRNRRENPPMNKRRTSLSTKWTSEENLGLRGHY
# [12] = target: Cytochrome P450 2C19 (Homo sapiens, UniProt P33261); test: Cytochrome panel assay with activity outcomes. Panel member name: p450-cyp2c19 Compounds with AC50 equal or less than 10 uM are considered active; format: functional; conditions: read-out: AC50
# Chain of Cytochrome P450 2C19 (P33261 whole entry): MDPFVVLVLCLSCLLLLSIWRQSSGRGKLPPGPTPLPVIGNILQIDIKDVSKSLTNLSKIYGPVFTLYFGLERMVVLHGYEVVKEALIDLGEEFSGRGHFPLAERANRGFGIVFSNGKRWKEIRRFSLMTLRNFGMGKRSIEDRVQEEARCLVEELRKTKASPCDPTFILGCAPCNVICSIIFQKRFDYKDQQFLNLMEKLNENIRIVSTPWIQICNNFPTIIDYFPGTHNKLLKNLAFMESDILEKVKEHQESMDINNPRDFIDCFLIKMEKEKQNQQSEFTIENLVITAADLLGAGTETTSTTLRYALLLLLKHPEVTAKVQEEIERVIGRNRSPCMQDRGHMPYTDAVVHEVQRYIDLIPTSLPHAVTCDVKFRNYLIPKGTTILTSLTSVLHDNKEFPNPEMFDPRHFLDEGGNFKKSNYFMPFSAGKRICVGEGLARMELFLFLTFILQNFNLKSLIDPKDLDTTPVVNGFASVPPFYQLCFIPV
# [13] = target: Cytochrome P450 2D6 (Homo sapiens, UniProt P10635);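 note: CYP2D6 member of a cytochrome P450 panel assay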
# Chain of Cytochrome P450 2D6 (P10635 whole entry): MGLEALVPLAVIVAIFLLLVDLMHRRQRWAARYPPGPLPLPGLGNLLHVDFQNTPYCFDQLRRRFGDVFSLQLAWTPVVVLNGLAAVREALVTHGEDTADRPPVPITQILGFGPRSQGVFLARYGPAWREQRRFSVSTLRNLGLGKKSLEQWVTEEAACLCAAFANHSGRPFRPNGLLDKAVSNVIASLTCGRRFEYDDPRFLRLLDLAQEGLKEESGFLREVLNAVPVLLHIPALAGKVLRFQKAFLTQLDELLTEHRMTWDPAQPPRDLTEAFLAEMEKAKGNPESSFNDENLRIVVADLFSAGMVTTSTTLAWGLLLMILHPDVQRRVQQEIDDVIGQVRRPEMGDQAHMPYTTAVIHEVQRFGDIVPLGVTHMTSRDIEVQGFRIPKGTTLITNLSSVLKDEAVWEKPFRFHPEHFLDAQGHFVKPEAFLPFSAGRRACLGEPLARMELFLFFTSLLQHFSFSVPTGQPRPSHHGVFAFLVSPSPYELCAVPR
# [14] = target: Cytochrome P450 2C9 (Homo sapiens, UniProt P11712)
# Chain of Cytochrome P450 2C9 (P11712 whole entry): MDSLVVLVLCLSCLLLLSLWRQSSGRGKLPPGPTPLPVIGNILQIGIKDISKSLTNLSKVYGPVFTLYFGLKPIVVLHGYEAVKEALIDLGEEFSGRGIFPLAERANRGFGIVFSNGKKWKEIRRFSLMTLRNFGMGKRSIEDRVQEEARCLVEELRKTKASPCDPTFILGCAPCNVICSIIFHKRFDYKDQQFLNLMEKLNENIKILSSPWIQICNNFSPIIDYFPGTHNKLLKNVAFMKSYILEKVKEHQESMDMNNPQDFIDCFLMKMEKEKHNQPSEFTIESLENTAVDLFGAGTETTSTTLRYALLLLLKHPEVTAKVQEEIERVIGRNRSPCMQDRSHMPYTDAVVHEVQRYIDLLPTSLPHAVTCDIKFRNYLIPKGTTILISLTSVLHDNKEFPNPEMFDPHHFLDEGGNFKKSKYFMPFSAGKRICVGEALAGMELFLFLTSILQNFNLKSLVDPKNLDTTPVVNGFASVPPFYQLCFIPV
# [15] = target: T5, Leucine aminopeptidase (Plasmodium falciparum 3D7, UniProt Q8IL11); test: P. falciparum M17LAP inhibitors, primary screen, biochemical, fluorogenic H-Leu-NHMec substrate, 1536-well (AID 1619); format: functional
# T5 sequence (Q8IL11 whole entry): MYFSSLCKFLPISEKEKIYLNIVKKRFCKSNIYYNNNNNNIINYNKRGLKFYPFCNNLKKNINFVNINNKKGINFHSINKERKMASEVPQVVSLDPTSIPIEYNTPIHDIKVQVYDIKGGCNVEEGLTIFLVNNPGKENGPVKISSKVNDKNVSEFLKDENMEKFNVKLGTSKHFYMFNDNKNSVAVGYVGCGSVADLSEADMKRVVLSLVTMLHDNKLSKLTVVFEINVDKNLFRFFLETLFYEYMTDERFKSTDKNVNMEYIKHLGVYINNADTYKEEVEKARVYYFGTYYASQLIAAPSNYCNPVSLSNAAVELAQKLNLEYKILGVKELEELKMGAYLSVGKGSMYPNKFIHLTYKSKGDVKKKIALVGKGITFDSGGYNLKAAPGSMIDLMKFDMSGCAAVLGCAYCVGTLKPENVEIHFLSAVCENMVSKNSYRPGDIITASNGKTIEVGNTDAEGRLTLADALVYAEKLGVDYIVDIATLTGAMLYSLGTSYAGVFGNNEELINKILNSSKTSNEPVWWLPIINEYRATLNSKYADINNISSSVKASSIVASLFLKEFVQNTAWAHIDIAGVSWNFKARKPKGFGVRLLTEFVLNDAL
# [16] = system: HEK293; test: SAR Analysis of small molecule inhibitors of T-cell specific antigen receptor-induced NF-kB activation in a HEK-293T cell line using a luminescence assay - Set 2. [Related pubchem assays (depositor defined):AID435003, AID435012, AID489026]; format: functional, cell-based; conditions: Homo sapiens
# [17] = system: Jurkat; test: SAR Analysis of small molecule inhibitors of T-cell specific antigen receptor-induced NF-kB activation in a Jurkat cell line using a luminescence assay - Set 2. [Related pubchem assays (depositor defined):AID435003, AID435012, AID465]; format: functional, cell-based; conditions: Homo sapiens
# [18] = system: HEK293; test: cytotoxicity in HEK293T NF-kB-Luc cells, SAR follow-up, cytotoxicity control for NF-kB activator project, cell-based, resazurin fluorescence (AID 493251); format: functional; conditions: Homo sapiens
# [19] = system: Jurkat; test: antigen receptor-induced NF-kB inhibitors, dose response, Jurkat, luciferase reporter, luminescence, B- and T-cell (AID 489004); format: functional, cell-based; conditions: Homo sapiens;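 note: NF-kB luciferase reporter Jurkat cells stimulated with PMA plus ionomycin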
# [20] = cytotoxicity in HEK-293T NF-kB-Luc cells, dose response, cytotoxicity control for B/T-cell NF-kB inhibitor project, cell-based, uHTS hits (AID 489019); format: functional;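 note: IC50 reflects cytotoxicity as loss of cell viability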
smiles,measurement,setting,value
Cc1ccc(Sc2cnc3ccccc3n2)cc1,EC50,[1],10.1 µM (active)
same,EC50,[2],3.64 µM (active)
same,AC50,[3],44.3 µM (active)
Cc1ccc(C)c(NC(=O)/C(C#N)=C/c2cn(CC(=O)NCc3ccco3)c3ccccc23)c1,AC50,[4],6.56 µM (active)
same,AC50,[5],33.9 µM (active)
same,AC50,[6],3.67 µM (active)
same,AC50,[7],57.8 µM (active)
Cn1c(=O)c2[nH]c(N=NNc3ccccc3F)nc2n(C)c1=O,AC50,[8],17.3 µM (active)
same,AC50,[9],8.83 µM (active)
same,EC50,[10],62 µM (active)
same,EC50,[11],21.7 µM (active)
Cc1ccc(NC(=O)c2cc(NC(=O)CCC(=O)O)ccc2N2CCCCC2)cc1,AC50,[12],35.5 µM (inconclusive)
same,AC50,[13],inconclusive
same,AC50,[14],14.1 µM (inconclusive)
same,IC50,[15],11.8 µM (active)
Cc1ccc(NC(=O)c2ccc([N+](=O)[O-])o2)cc1C(F)(F)F,IC50,[16],68.5 µM (inactive)
same,IC50,[17],0.45 µM (active)
same,IC50,[18],60 µM (inactive)
CCCCCCCCn1ccc(=N)cc1,AC50,[6],0.585 µM (active)
same,IC50,[19],> 80 µM (inactive)
same,IC50,[20],> 80 µM (inactive)
